This note sets out measurements from ChEMBL document CHEMBL3259594, “Benzylpiperidine variations on histamine H3 receptor ligands for improved drug-likeness” (Bioorg Med Chem Lett, 2014).

Assay [1] concerns the target T1, Histamine H3 receptor (Homo sapiens, UniProt Q9Y5N1). In words: Displacement of [3H]N-alpha-methylhistamine from recombinant human histamine H3 receptor expressed in HEK293 cells after 90 mins. It is filed as cell-based. (Loss of bound radioactivity is the signal in a displacement assay; it reports binding, not function.)
Assay [2] concerns the target T1, Histamine H3 receptor. Kind of assay: Displacement of [125I]Iodoproxyfan from recombinant human histamine H3 receptor expressed in HEK293 cells after 90 mins. It is filed as cell-based.
Assay [3] deals with Histamine H3 receptor (Rattus norvegicus, UniProt Q9QYN8). Kind of assay: Binding affinity to rat histamine H3 receptor.

Molecules are shown by their SMILES.

T1 sequence (Q9Y5N1 whole entry): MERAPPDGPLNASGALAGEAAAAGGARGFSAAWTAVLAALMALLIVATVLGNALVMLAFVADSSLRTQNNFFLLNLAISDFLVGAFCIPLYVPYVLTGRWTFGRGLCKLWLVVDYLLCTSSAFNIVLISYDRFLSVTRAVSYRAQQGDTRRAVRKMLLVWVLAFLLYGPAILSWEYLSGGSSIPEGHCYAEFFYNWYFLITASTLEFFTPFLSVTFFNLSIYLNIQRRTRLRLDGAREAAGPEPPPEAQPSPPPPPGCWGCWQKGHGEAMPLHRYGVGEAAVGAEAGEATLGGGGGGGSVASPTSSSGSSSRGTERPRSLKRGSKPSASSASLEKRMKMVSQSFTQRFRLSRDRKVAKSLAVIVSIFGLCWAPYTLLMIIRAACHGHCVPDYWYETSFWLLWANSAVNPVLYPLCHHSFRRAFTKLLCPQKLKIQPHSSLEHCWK
Sequence of Histamine H3 receptor (Rattus norvegicus, UniProt Q9QYN8) (Q9QYN8 whole entry): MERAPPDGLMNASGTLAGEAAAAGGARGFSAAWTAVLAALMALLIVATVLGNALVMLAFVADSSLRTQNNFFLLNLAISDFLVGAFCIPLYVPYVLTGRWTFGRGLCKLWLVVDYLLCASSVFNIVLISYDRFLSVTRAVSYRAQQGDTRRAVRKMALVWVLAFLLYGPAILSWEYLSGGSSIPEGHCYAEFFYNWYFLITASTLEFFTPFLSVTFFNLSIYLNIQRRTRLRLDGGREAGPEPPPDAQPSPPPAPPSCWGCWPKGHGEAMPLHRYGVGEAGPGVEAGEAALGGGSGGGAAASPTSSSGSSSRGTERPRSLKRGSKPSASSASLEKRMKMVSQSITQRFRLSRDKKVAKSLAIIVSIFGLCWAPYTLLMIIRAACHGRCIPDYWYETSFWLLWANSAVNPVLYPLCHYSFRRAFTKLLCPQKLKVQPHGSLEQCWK

As for `Cc1nnc(C2CCN(Cc3ccc(OCCCN4CCCCC4)cc3)CC2)o1`, the Ki – broadly, the equilibrium dissociation constant of an inhibitor or competing ligand from its target – on Histamine H3 receptor [1] is 0.479 nM. Consider `c1cc(OCCCN2CCCCC2)ccc1CN1CCC2(CC1)OCCO2`, for which the inhibition constant Ki at Histamine H3 receptor [2] was 2.04 nM. For `CCOC(=O)C1CCN(Cc2ccc(OCCCN3CCCCC3)cc2)CC1`, on Histamine H3 receptor [1], the inhibition constant (Ki) is 0.229 nM.

Turning to `OCC1CCN(Cc2ccc(OCCCN3CCCCC3)cc2)CC1`, the Ki at Histamine H3 receptor [1] is 0.676 nM. On to `c1cc(OCCCN2CCCCC2)ccc1CN1CCCCC1` [JNJ-5207852], for which the affinity at Histamine H3 receptor [3] corresponds to a Ki of 0.58 nM. In the case of `O=C1CCN(Cc2ccc(OCCCN3CCCCC3)cc2)CC1`, the Ki on Histamine H3 receptor [2] was 2.51 nM. Same read-out and setting: the same measure for `CCNC(=O)C1CCN(Cc2ccc(OCCCN3CCCCC3)cc2)CC1`: 2.95 nM. For `O=C(O)C1CCN(Cc2ccc(OCCCN3CCCCC3)cc2)CC1`, the Ki at Histamine H3 receptor [1] was 12.9 nM. For the molecule `C#CCNC(=O)C1CCN(Cc2ccc(OCCCN3CCCCC3)cc2)CC1`, at Histamine H3 receptor [2], the Ki was 11 nM.

With `c1ccc2c(c1)CCN(Cc1ccc(OCCCN3CCCCC3)cc1)C2`, the Ki at Histamine H3 receptor [2] was 2.95 nM. For the molecule `OC1CCN(Cc2ccc(OCCCN3CCCCC3)cc2)CC1`, the inhibitory constant (Ki) on Histamine H3 receptor [1] is 0.589 nM.
